Patent EP2141164A1, “New 1,2,4-triazine derivatives and biological applications thereof” (priority 2008, dated 2010)

The molecules below were run against T1, RfaE (Escherichia coli, UniProt P76658) (assay: RfaE luminescent assay (inhibition of the enzymatic activity of RfaE)). Conditions: luminescent ATP detection; 3 nM RfaE, 0.2 µM β-heptose-7-phosphate, 0.2 µM ATP; 30 min pre-incubation.
T1 construct: made in house; host or cells: E.coli
Type: biochemical, E.coli
Source text: RfaE is a kinase sharing similarities with the ribokinases family. It catalyses an essential step of the biosynthesis of L-ADP-Heptose, namely the phosphorylation of β-heptose-7-phosphate (H7P) into β-heptose-1,7-bisphosphate (H1,7P). RfaE assays as described in the literature are essentially based on direct HLPC detection of the substrates H7P and ATP, and of the products H1,7P and ADP, raising obvious limitations for HTS applications. The assays described below are based either on luminescent ATP detection, or on fluorescent ADP detection. They are easily amenable to miniaturized formats and fast readouts as required by HTS.
The assay buffer "AB" contains 50 mM Hepes pH=7.5, 1 mM MnCl2, 25 mM KCI, 0.012% Triton-X100 and 1 mM DTT (Dithiothreitol). The following components are added in a white polystyrene Costar plate up to a final volume of 31 µL: 3 µL DMSO, or inhibitor dissolved in DMSO and 28 µL RfaE in AB. After 30min of pre-incubation at room temperature, 29 µL of Substrates mix in AB are added in each well to a final volume of 60 µL. This reaction mixture is then composed of 3 nM RfaE (produced in house from E.coli), 0.2 µM β -heptose-7-phosphate (in house synthesis) and 0.2 µM ATP (Sigma) in assay buffer. After 40min of incubation at room temperature, 200 µL of the revelation mix are added to a final volume of 260 µL, including the following constituents at the respective final concentrations: 2 nM luciferase (Sigma), 30 µM D-luciferin (Sigma), 100 µM N-acetylcysteamine (Aldrich). Luminescence intensity is immediately measured on an Analyst-HT (Molecular Devices) and converted into inhibition percentages.
For IC50 determinations, the inhibitor is tested at 6 to 10 different concentrations, and the related inhibitions are fitted to a classical langmuir equilibrium model using XLFIT (IDBS).

T1 sequence (P76658 whole entry): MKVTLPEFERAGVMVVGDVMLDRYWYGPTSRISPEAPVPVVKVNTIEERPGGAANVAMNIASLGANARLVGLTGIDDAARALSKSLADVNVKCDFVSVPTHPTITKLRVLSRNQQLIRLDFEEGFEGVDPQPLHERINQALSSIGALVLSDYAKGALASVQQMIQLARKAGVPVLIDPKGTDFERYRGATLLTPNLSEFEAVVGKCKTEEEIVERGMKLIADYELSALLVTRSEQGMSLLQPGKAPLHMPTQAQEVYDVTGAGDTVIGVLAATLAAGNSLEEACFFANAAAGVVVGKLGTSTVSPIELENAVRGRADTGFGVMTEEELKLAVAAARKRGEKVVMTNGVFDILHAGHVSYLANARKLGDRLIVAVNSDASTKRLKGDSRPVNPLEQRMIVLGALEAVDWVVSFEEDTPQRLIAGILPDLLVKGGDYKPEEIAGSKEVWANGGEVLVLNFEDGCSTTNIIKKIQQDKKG

`Cc1nc(CNc2nncc(-c3ccccc3Cl)n2)sc1C` [Example 9, 5-(2-Chlorophenyl)-N-[(4,5-dimethyl-1,3-thiazol-2-yl)methyl]-1,2,4-triazin-3-amine] and `Oc1cccc2sc(CNc3nncc(-c4ccccc4C(F)(F)F)n3)nc12` [Example 64, 2-[({5-[2-(Trifluoromethyl)phenyl]-1,2,4-triazin-3-yl}amino)methyl]-1,3-benzothiazol-4-ol] are within 1.5-fold of each other in IC50: 4.3 µM for the first, 5.6 µM for the second.

Compared with `COc1ccc2sc(CNc3nncc(-c4c(Cl)cccc4Cl)n3)nc2c1` [Example 15, 5-(2,6-Dichlorophenyl)-N-[(5-methoxy-1,3-benzothiazol-2-yl)methyl]-1,2,4-triazin-3-amine], `CC(=O)COc1ccc2sc(CNc3nncc(-c4c(Cl)cccc4Cl)n3)nc2c1` [Example 20, 1-{[2-({[5-(2,6-Dichlorophenyl)-1,2,4-triazin-3-yl]amino}methyl)-1,3-benzothiazol-5-yl]oxy}acetone] is 1.7-fold lower in IC50: 0.13 µM for the first, 0.077 µM for the second. The second is the more potent here.

`OCCOc1ccc2sc(CNc3nncc(-c4c(Cl)cccc4Cl)n3)nc2c1` [Example 16, 2-{[2-({[5-(2,6-Dichlorophenyl)-1,2,4-triazin-3-yl]amino}methyl)-1,3-benzothiazol-5-y]oxy}ethanol] and `O=C(O)COc1ccc2sc(CNc3nncc(-c4c(Cl)cccc4Cl)n3)nc2c1` [Example 17, {[2-({[5-(2,6-dichlorophenyl)-1,2,4-triazin-3-yl]amino}methyl)-1,3-benzothiazol-5-yl]oxy}acetic acid] are within 1.5-fold of each other in IC50: 0.018 µM for the first, 0.019 µM for the second.

First: O=C(COc1ccc2sc(CNc3nncc(-c4c(Cl)cccc4Cl)n3)nc2c1)NCCO [Example 18, 2-(2-{[5-(2,6-Dichloro-phenyl)-[1,2,4]triazin-3-ylamino]-methyl}-benzothiazol-5-yloxy)-N-(2-hydroxy-ethyl)-acetamide]
Second: CN(C)CCNC(=O)COc1ccc2sc(CNc3nncc(-c4c(Cl)cccc4Cl)n3)nc2c1 [Example 19, 2-(2-{[5-(2,6-Dichloro-phenyl)-[1,2,4]triazin-3-ylamino]-methyl}-benzothiazol-5-yloxy)-N-(2-dimethylamino-ethyl)-acetamide]
The IC50 of the first is 3.5-fold lower: 0.047 µM for the first, 0.165 µM for the second.

Compared with `NC(=O)COc1ccc2sc(CNc3nncc(-c4c(Cl)cccc4Cl)n3)nc2c1` [Example 21, 2-{[2-({[5-(2,6-Dichlorophenyl)-1,2,4-triazin-3-yl]amino}methyl)-1,3-benzothiazol-5-yl]oxy}acetamide], `NCCSc1ccc2sc(CNc3nncc(-c4c(Cl)cccc4Cl)n3)nc2c1` [Example 94, N-({5-[(2-Aminoethyl)thio]-1,3-benzothiazol-2-yl}methyl)-5-(2,6-dichlorophenyl)-1,2,4-triazin-3-amine] is 3.7-fold higher in IC50: 0.067 µM for the first, 0.25 µM for the second. The first is the more potent here.

Compared with `COc1ccc2ccccc2c1-c1cnnc(NCc2nc3ccccc3s2)n1` [Example 22, Benzothiazol-2-ylmethyl-[5-(2-methoxy-naphthalen-1-yl)-[1,2,4]triazin-3-yl]-amine], `Oc1ccc2ccccc2c1-c1cnnc(NCc2nc3ccccc3s2)n1` [Example 32, 1-{3-[(Benzothiazol-2-ylmethyl)-amino]-[1,2,4]triazin-5-yl}-naphthalen-2-ol] is 2.1-fold lower in IC50: 0.13 µM for the first, 0.063 µM for the second. The second is the more potent here.

Compared with `COc1ccc2sc(CNc3nncc(-c4c(OC)ccc5ccccc45)n3)nc2c1` [Example 29, N-[(5-Methoxy-1,3-benzothiazol-2-yl)methyl]-5(2-methoxy-1-naphthyl)-1,2,4-triazin-3-amine], `Oc1ccc2sc(CNc3nncc(-c4c(O)ccc5ccccc45)n3)nc2c1` [Example 33, 2-{[5-(2-Hydroxy-naphthalen-1-yl)-[1,2,4]triazin-3-ylamino]-methyl}-benzothiazol-5-ol] is 2.5-fold lower in IC50: 0.051 µM for the first, 0.02 µM for the second. The second is the more potent here.

Compared with `COc1ccc2sc(CNc3nncc(-c4c(C)cccc4O)n3)nc2c1` [Example 35, 2-(3-{[(5-Methoxy-1,3-benzothiazol-2-yl)methyl]amino}-1,2,4-triazin-5-yl)-3-methylphenol], `Cc1cccc(O)c1-c1cnnc(NCc2nc3cc(NCc4nccs4)ccc3s2)n1` [Example 43, 3-Methyl-2-{3-[({5-[(1,3-thiazol-2-ylmethyl)amino]-1,3-benzothiazol-2-yl}methyl)amino]-1,2,4-triazin-5-yl}phenol] is 5.9-fold higher in IC50: 0.069 µM for the first, 0.41 µM for the second. The first is the more potent here.

Going from `COc1cccc(OC)c1-c1cnnc(NCc2nc3c(s2)CCCC3)n1` [Example 57, 5-(2,6-Dimethoxyphenyl)-N-(4,5,6,7-tetrahydro-1,3-benzothiazol-2-ylmethyl)-1,2,4-triazin-3-amine] to `COc1cccc(C)c1-c1cnnc(NCc2nc3cccnc3s2)n1` [Example 70, 5-(2-Methoxy-6-methylphenyl)-N-([1,3]thiazolo[5,4-b]pyridin-2-ylmethyl)-1,2,4-triazin-3-amine], the IC50 rises from 1.9 µM to 3.1 µM (1.6-fold). The first is the more potent here.

Going from `COc1ccc2sc(CNc3nncc(-c4c(C)cc(NC(=O)CN(C)C)cc4C)n3)nc2c1` [Example 75, 2-Dimethylamino-N-(4-{3-[(5-methoxy-benzothiazol-2-ylmethyl)-amino]-[1,2,4]triazin-5-yl}-3,5-dimethyl-phenyl)-acetamide] to `Cc1cc(NCCN(C)C)cc(C)c1-c1cnnc(NCc2nc3cc(OCCN)ccc3s2)n1` [Example 108, N-[4-(3-{[5-(2-Amino-ethoxy)-benzothiazol-2-ylmethyl]-amino}-[1,2,4]triazin-5-yl)-3,5-dimethyl-phenyl]-N',N'-dimethyl-ethane-1,2-diamine], the IC50 rises from 0.19 µM to 1.4 µM (7.4-fold). The first is the more potent here.

First: COc1cccc(OC)c1-c1cnnc(N(CC(=O)O)Cc2nc3ccccc3s2)n1 [Example 90, {(1,3-Benzothiazol-2-ylmethyl)[5-(2,6-dimethoxyphenyl)-1,2,4-triazin-3-yl]amino}acetic acid]
Second: COc1ccc2sc(CNc3nncc(-c4cc(-c5cn[nH]c5)ccc4Cl)n3)nc2c1 [Example 98, 5-[2-Chloro-5-(1H-pyrazol-4-yl)phenyl]-N-[(5-methoxy-1,3-benzothiazol-2-yl)methyl]-1,2,4-triazin-3-amine]
The IC50 of the first is 41-fold higher: 2 µM for the first, 0.049 µM for the second.

Going from `COc1ccc2sc(CNc3nncc(-c4cc(-c5ccn[nH]5)ccc4Cl)n3)nc2c1` [Example 97, 5-[2-Chloro-5-(1H-pyrazol-3-yl)phenyl]-N-[(5-methoxy-1,3-benzothiazol-2-yl)methyl]-1,2,4-triazin-3-amine] to `COc1ccc2sc(CNc3nncc(-c4cc(-c5cccnc5)ccc4Cl)n3)nc2c1` [Example 99, 5-(2-Chloro-5-pyridin-3-ylphenyl)-N-[(5-methoxy-1,3-benzothiazol-2-yl)methyl]-1,2,4-triazin-3-amine], the IC50 rises from 0.053 µM to 0.15 µM (2.8-fold). The first is the more potent here.

Going from `COc1ccc2sc(CNc3nncc(-c4cc(-c5cn(CCO)nn5)ccc4Cl)n3)nc2c1` [Example 100, 2-[4-(4-Chloro-3-{3-[(5-methoxy-benzothiazol-2-ylmethyl)-amino]-[1,2,4]triazin-5-yl}-phenyl)-[1,2,3]triazol-1-yl]-ethanol] to `COc1ccc2sc(CNc3nncc(-c4ccc(N5CCNCC5)cc4Cl)n3)nc2c1` [Example 107, N-[(5-Methoxy-1,3-benzothiazol-2-yl)methyl]-5-(2-chloro-4-piperazin-1-ylphenyl)-1,2,4-triazin-3-amine], the IC50 rises from 0.255 µM to 0.67 µM (2.6-fold). The first is the more potent here.

These molecules were tested on E. coli K12 AcrAB- TolC- (assay: Sensitization to complement killing assay (MIC with/without serum)). Conditions: Escherichia coli, read-out: MIC for E. coli K12 AcrAB- TolC-, FBS=0 (MH2 broth only); 18-22H at 35°C.
Type: cell-based
Procedure: The Gram-negative bacteria E. coli K12 AcrAB-/TolC- (K12 strain for which efflux pump components AcrA, AcrB and TolC have been deleted) is grown on Müller Hinton agar (MHA) overnight at 35°C. Five well isolated colonies from overnight agar growth are then added to 10 mL of cation adjusted Müller-Hinton Broth (MH2) and incubated at 35°C with constant shaking for two hours to reach the exponential phase. The suspension is then diluted to obtain an inoculum of 1.5E+04 CFU/mL. Viable counts are obtained by plating 10 to 1000-fold dilutions of the suspension on MHA. A solution of decomplemented Foetal Bovine Serum (dFBS) is prepared by heating normal FBS at 56°C for 30min. Compound dilutions are prepared in DMSO/water 20/80 in polypropylene plates. The following components are added on a polystyrene sterile culture plate in a final volume of 100µL: 5µL of compound in 20% DMSO, 30µL of FBS (30% final) or dFBS (30% final) or MH2 (0% FBS), 65µL of bacterial suspension at 1.5e4 CFU/mL (final inoculum of 1e4 CFU/mL). After 18-22H at 35°C incubation, the MIC of the compound in the presence of FBS 30%, dFBS 30% or FBS 0% is determined by visual inspection of bacterial pellets.

`O=C(COc1ccc2sc(CNc3nncc(-c4c(Cl)cccc4Cl)n3)nc2c1)NCCO` [Example 18, 2-(2-{[5-(2,6-Dichloro-phenyl)-[1,2,4]triazin-3-ylamino]-methyl}-benzothiazol-5-yloxy)-N-(2-hydroxy-ethyl)-acetamide] showed an MIC greater than 32 mg/L.

Same assay, conditions: Escherichia coli, read-out: MIC for E. coli K12 AcrAB- TolC-, decomplemented FBS=30%; 18-22H at 35°C

Work on `O=C(COc1ccc2sc(CNc3nncc(-c4c(Cl)cccc4Cl)n3)nc2c1)NCCO` [Example 18, 2-(2-{[5-(2,6-Dichloro-phenyl)-[1,2,4]triazin-3-ylamino]-methyl}-benzothiazol-5-yloxy)-N-(2-hydroxy-ethyl)-acetamide] yielded an MIC greater than 32 mg/L.

Same assay, conditions: Escherichia coli, read-out: MIC for E. coli K12 AcrAB- TolC-, normal (complemented) FBS=30%; 18-22H at 35°C

In the case of `O=C(COc1ccc2sc(CNc3nncc(-c4c(Cl)cccc4Cl)n3)nc2c1)NCCO` [Example 18, 2-(2-{[5-(2,6-Dichloro-phenyl)-[1,2,4]triazin-3-ylamino]-methyl}-benzothiazol-5-yloxy)-N-(2-hydroxy-ethyl)-acetamide], the MIC is reported as 4 mg/L.
